Experimental data as given in patent US6806230B1, “Pyrimidine derivatives and herbicides containing them” (Kumiai Chemical Industry Co., Ltd., priority 1999, dated 2004).

How the values were obtained:
Format in all cases: in vivo
[1] = tested on: barnyard grass (Ec); assay: Test Example 3: herbicidal effects by foliage treatment in upland field; set-up: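 0-5 growth inhibition grade; 5 = over 90%; 4 = 70-90%; 3 = 50-70%; 2 = 30-50%; 1 = 10-30%; 0 = under 10%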; details: dose 100 g active ingredient per 10 ares, examined on the 14th day after treatment
In short: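 Barnyard grass and green foxtail were grown in upland soil for 2 weeks in a greenhouse. A water-diluted wettable powder was sprayed over the foliage at 100 l per 10 ares, giving 100 g active ingredient per 10 ares. Herbicidal effect was scored on day 14 after treatment.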

[2] = tested on: monochoria (Mo); assay: Test Example 1: herbicidal effects by flooded paddy field treatment; set-up: herbicidal effects, Mo (monochoria):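 0-5 growth inhibition grade; 5 = over 90%; 4 = 70-90%; 3 = 50-70%; 2 = 30-50%; 1 = 10-30%; 0 = under 10%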; details: for herbicidal effects, Mo (monochoria): dose 100 g active ingredient per 10 ares, examined on the 21st day after treatment, standards of Table 44; for Herbicidal effect index, Mo: dose 100 gai/10a, examined on 21st day after treatment, index 0-5 per Table 44;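 for Herbicidal effect index, Mo: 0-5 growth inhibition grade; 5 = over 90%; 4 = 70-90%; 3 = 50-70%; 2 = 30-50%; 1 = 10-30%; 0 = under 10%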
In short: (§1)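 Seeds sown in puddled paddy soil and flooded to 3 cm. Next day, a water-diluted wettable powder was dripped onto the water surface at 100 g active ingredient per 10 ares. Plants were grown in a greenhouse, and herbicidal effect was scored against a rating standard 21 days after treatment.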

[3] = tested on: barnyard grass (Eo); assay: as above; set-up: herbicidal effects, Eo (barnyard grass):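 0-5 growth inhibition grade; 5 = over 90%; 4 = 70-90%; 3 = 50-70%; 2 = 30-50%; 1 = 10-30%; 0 = under 10%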; details: for herbicidal effects, Eo (barnyard grass): dose 100 g active ingredient per 10 ares, examined on the 21st day after treatment, standards of Table 44; for Herbicidal effect index, Eo: dose 100 gai/10a, examined on 21st day after treatment, index 0-5 per Table 44
In short: as §1

[4] = tested on: green foxtail (Se); assay: Test Example 2: herbicidal effects by upland soil treatment; details: dose 100 g active ingredient per 10 ares, examined on the 21st day after treatment, standards of Table 44;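 note: 0-5 growth inhibition grade; 5 = over 90%; 4 = 70-90%; 3 = 50-70%; 2 = 30-50%; 1 = 10-30%; 0 = under 10%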
In short: (§2)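 Pre-emergence test: barnyard grass and green foxtail sown in upland soil, then soil surface sprayed with wettable-powder formulation at 100 g active ingredient per 10 ares (100 l per 10 ares). Grown in greenhouse; herbicidal effect scored on a rating scale 21 days after treatment.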

[5] = tested on: barnyard grass (Ec); assay: as above; set-up: scale not given here; details: dose 100 g active ingredient per 10 ares, examined on the 21st day after treatment, standards of Table 44
In short: as §2

[6] = tested on: rice (Or); assay: Test Example 4: selectivity for a crop plant by flooded paddy field treatment; set-up: scale not given here; details: rice transplanted at second leaf stage; for Or (herbicidal effect index on crop): dose 25 gai/10a, 21st day after treatment, index per Table 44; for Or (effect on crop plant rice, index): dose 25 g active ingredient per 10 ares, examined on the 21st day after treatment
In short: (§3)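 Paddled paddy soil in pots sown with barnyard grass and monochoria, with second-leaf-stage rice transplanted, under 3 cm of water. Next day a diluted wettable powder was dripped onto the water at 25 g active ingredient per 10 ares; effects scored on a rating scale 21 days later in a greenhouse.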

[7] = tested on: monochoria (Mo); assay: as above; set-up: scale not given here; details: for Mo (herbicidal effect index): monochoria, dose 25 gai/10a, 21st day after treatment, index per Table 44; for Mo (herbicidal effects, index): dose 25 g active ingredient per 10 ares, examined on the 21st day after treatment
In short: as §3

[8] = tested on: barnyard grass (Eo); assay: as above; set-up: scale not given here; details: for Eo (herbicidal effect index): barnyard grass, dose 25 gai/10a, 21st day after treatment, index per Table 44; for Eo (herbicidal effects, index): dose 25 g active ingredient per 10 ares, examined on the 21st day after treatment
In short: as §3
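Throughout, for Herbicidal effect index, Eo: 0-5 growth inhibition grade; 5 = over 90%; 4 = 70-90%; 3 = 50-70%; 2 = 30-50%; 1 = 10-30%; 0 = under 10%.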

Row | Structure (SMILES) | Ec (herbicidal effects, index) [1] | herbicidal effects, Mo (monochoria) [2] | herbicidal effects, Eo (barnyard grass) [3] | herbicidal effects, Se (green foxtail) [4] | herbicidal effects, Ec (barnyard grass) [5] | Or (herbicidal effect index on crop) [6] | Mo (herbicidal effect index) [7] | Eo (herbicidal effect index) [8] | Herbicidal effect index, Mo [2] | Herbicidal effect index, Eo [3] | Or (effect on crop plant rice, index) [6] | Mo (herbicidal effects, index) [7] | Eo (herbicidal effects, index) [8]
1 | CN(C(=O)Cc1ccc(F)cc1)C(c1ccc(F)cc1)c1cncnc1C(F)(F)F (racemic) [1-218] | 4 | 5 | 5 | 5 | 5 | 1 | 5 | 5 |  |  |  |  | 
2 | Cc1ccc(CC(=O)N(C)C(c2ccc(F)cc2)c2cncnc2C(F)(F)F)cc1 (racemic) [1-220] | 5 | 5 | 5 | 5 | 5 | 1 | 5 | 5 |  |  |  |  | 
3 | CC(C)C(c1cncnc1C(F)(F)F)N(C)C(=O)Cc1ccc(F)cc1 (racemic) [Compound 1-12] | 5 |  |  | 5 | 5 |  |  |  | 5 | 5 |  |  | 
4 | CCOc1ccc(CC(=O)N(C)C(c2cncnc2C(F)(F)F)C(C)C)cc1 (racemic) [Compound 1-13] | 5 |  |  | 5 | 5 |  |  |  | 5 | 5 | 1 | 5 | 5
5 | CC(C)C(c1cncnc1C(F)(F)F)N(C)C(=O)Cc1cccc(Cl)c1 (racemic) [Compound 1-21] | 4 |  |  | 5 | 5 |  |  |  | 5 | 5 | 1 | 5 | 5
6 | CC(C)C(c1cncnc1C(F)(F)F)N(C)C(=O)Cc1ccc(Cl)cc1 (racemic) [Compound 1-22] | 4 |  |  | 5 | 5 |  |  |  | 5 | 5 | 1 | 5 | 5
7 | CC(C)C(c1cncnc1C(F)(F)F)N(C)C(=O)Cc1ccc(C(F)(F)F)cc1 (racemic) [Compound 1-24] | 4 |  |  | 5 | 5 |  |  |  | 5 | 5 |  |  | 
8 | CCN(C(=O)Cc1ccccc1)C(c1cncnc1C(F)(F)F)C(C)C (racemic) [Compound 1-26] | 4 |  |  | 5 | 5 |  |  |  | 5 | 5 | 1 | 5 | 5
9 | CCN(C(=O)Cc1ccc(F)cc1)C(c1cncnc1C(F)(F)F)C(C)C (racemic) [Compound 1-27] | 4 |  |  | 5 | 5 |  |  |  | 5 | 5 |  |  | 
10 | CC(C)C(c1cncnc1C(F)(F)F)N(C)C(=O)Cc1ccc(Br)cc1 (racemic) [Compound 1-41] | 5 |  |  | 5 | 5 |  |  |  | 5 | 5 | 0 | 5 | 5
11 | COc1cc(CC(=O)N(C)C(c2cncnc2C(F)(F)F)C(C)C)ccc1Cl (racemic) [Compound 1-47] | 4 |  |  | 5 | 5 |  |  |  | 5 | 5 | 0 | 5 | 5
12 | CC(C)C(c1cncnc1C(F)(F)F)N(C)C(=O)Cc1cccc(F)c1 (racemic) [Compound 1-66] | 5 |  |  | 5 | 5 |  |  |  | 5 | 5 |  |  | 
13 | Cc1ncncc1C(C(C)C)N(C)C(=O)Cc1ccccc1 (racemic) [Compound 1-87] | 4 |  |  | 5 | 5 |  |  |  | 5 | 5 | 1 | 5 | 5
14 | Cc1ncncc1C(C(C)C)N(C)C(=O)Cc1ccc(F)cc1 (racemic) [Compound 1-88] | 4 |  |  | 5 | 5 |  |  |  | 5 | 5 |  |  | 
15 | CC(C)C(c1cncnc1C(F)(F)F)N(C)C(=O)Cc1ccc(OC(F)F)cc1 (racemic) [Compound 1-96] | 5 |  |  | 5 | 5 |  |  |  | 5 | 5 |  |  | 
16 | CCCC(c1cncnc1C(F)(F)F)N(C)C(=O)Cc1ccc(F)cc1 (racemic) [Compound 1-112] | 4 |  |  | 5 | 5 |  |  |  | 5 | 5 |  |  | 
17 | CCCC(c1cncnc1C(F)(F)F)N(C)C(=O)Cc1ccc(C)cc1 (racemic) [Compound 1-113] | 4 |  |  | 4 | 5 | 0 | 5 | 5 | 5 | 5 |  |  | 
18 | CC(C)C(c1cncnc1C(F)(F)F)N(C)C(=O)Cc1ccc(F)c(F)c1 (racemic) [Compound 1-122] | 4 |  |  | 5 | 5 |  |  |  | 5 | 5 |  |  | 
19 | CC(C)C(c1cncnc1C(F)(F)F)N(C)C(=O)COc1ccc(F)cc1 (racemic) [Compound 1-127] | 4 |  |  | 5 | 5 |  |  |  | 5 | 5 |  |  | 
20 | CC(C)C(c1cncnc1C(F)(F)F)N(C)C(=O)COc1cccc(Cl)c1 (racemic) [Compound 1-133] | 5 | 5 | 5 | 5 | 5 | 1 | 5 | 5 |  |  |  |  | 
21 | CN(C(=O)Cc1ccccc1)C(c1cncnc1C(F)(F)F)C1CCCC1 (racemic) [Compound 1-137] | 5 | 5 | 5 | 5 | 5 | 1 | 5 | 5 |  |  |  |  | 
22 | CC(C)C(c1cncnc1C(F)(F)F)N(C)C(=S)Cc1ccc(F)cc1 (racemic) [Compound 1-143] | 4 | 5 | 5 | 5 | 5 |  |  |  |  |  |  |  | 
23 | CC(C)C(c1cncnc1C(F)(F)F)N(C)C(=S)Cc1ccc(Cl)cc1 (racemic) [Compound 1-144] | 4 | 5 | 5 | 5 | 5 | 1 | 5 | 5 |  |  |  |  | 
24 | CC(C)C(c1cncnc1C(F)F)N(C)C(=O)Cc1ccc(F)cc1 (racemic) [Compound 1-164] | 4 | 5 | 5 | 5 | 5 |  |  |  |  |  |  |  | 
